Series [1] is described as follows: Aqueous solubility (UV spectrophotometry). The following applies: water, thermodynamic from solid, general statement. Format: physicochemical. How it is done:
The aqueous solubility (reported above) of Form I of ODV succinate was determined according to the following procedure. Materials • Spectrophotometer—Capable of isolating a bandwidth of 2 nm or less at the wavelength of maximum absorbance, and of measuring absorbances in the 0.0 to 1.0 range with a precision of 0.01. A Cary Model 219 spectrophotometer or equivalent is suitable. • Cells—Silica, 1 cm. • Filters—0.45 micron Nylon filters which are chemical resistant or equivalent • Bottles—Glass screw top bottles having a 15 mL or greater capacity. • Shaker—A lateral shaker, wrist shaker, or a vibrator which will not generate heat is suitable. A. For Non UV Absorbing Solvents • 1. To a bottle weigh an amount of sample equivalent to approximately 1½ times the solubility. • 2. […] Agitate the bottles at ambient room temperature for at least 16 hours. • 4. Obtain a clear filtrate layer by either centrifugation of filtration being careful to avoid evaporation. • 5. Quantitatively transfer the solution to a volumetric flask and dilute to volume with water. • 6. Blank the instrument for water. • 7. Make quantitative dilutions to arrive at a suitable concentration for measurement. […] Quantitatively transfer to a volumetric flask with the same solvent used in preparing the standard solution. • 6. Make dilutions as necessary to obtain a concentration suitable for quantitative measurement. […]

Series [2] can be described thus: Stability in perfusion buffer and jejunal fluids. To be noted: for relative percentage remaining of HPLC peak area: 37° C. Type of series: in vitro ADME, rat. How it is done:
The stability of ODV succinate or fumarate in the solutions of blank perfusion buffer (Pβ), and jejunal fluids (perfusion buffer collected by washing the isolated jejunal segment, pH=6.8) was determined at 37° C. for up to 6 hours.

Series [3] can be described thus: Bioavailability of O-desmethyl-venlafaxine in beagle dogs. The following applies: male, dog, plasma, free ODV levels, mean (% CV); for bioavailability: read-out: Absolute Bioavailability (%). Type of series: in vivo. The protocol:
Prior to administration, the oral solution (25 mg/mL) was diluted to a concentration of 7.5 mg/mL with water. […] Six male beagle dogs with body weights ranging between 10.2 and 16.0 kg were used in this study. The dogs were housed and given free access to water and food. The six dogs were dosed in a 4 period study. In Period 1, the dogs received 1 mL of the intravenous solution. In Period 2, the dogs received 10 mL of the oral solution. In Period 3, the dogs received the tablet. In Period 4, the dogs received the capsule. There was a one week wash out period between the first two treatment periods and a one month wash out period between treatment periods 2 and 3. Between periods 3 and 4, there was a one week wash out period. For periods 1 and 2, all dogs were fasted overnight with free access to water and fed after the four-hour bleeding. […] Plasma was separated in a refrigerated centrifuge and stored at -70° C. Plasma samples were then assayed. Plasma O-desmethyl-venlafaxine concentrations were determined by the HPLC method using mass spectrometric detection described in Hicks, […]., Russel, […] high-performance liquid chromatographic method for the simultaneous determination of venlafaxine and O-desmethylvenlafaxine in biological fluids”, Ther. Drug Monit. 16:100-107 (1994), which is hereby incorporated by reference. […] O-desmethyl-venlafaxine-glucuronide levels were determined by subtracting the O-desmethyl-venlafaxine (separate extraction procedure without the use of β-glucuronidase and analyzed by HPLC-MS) concentrations from the total O-desmethyl-venlafaxine concentrations. Noncompartmental pharmacokinetic parameters were calculated from the individual dog plasma O-desmethyl-venlafaxine and O-desmethyl-venlafaxine-glucuronide concentration-time profiles. Area under the plasma concentration-time curves (AUC0-μ) values were calculated by the addition of AUCLast (AUCLast=the linear trapezoid rule from time zero to the last measurable plasma concentration, […]) and […]/lambda. The values for lambda were determined from the long-linear portion of the terminal slope of the plasma O-desmethyl-venlafaxine and O-desmethyl-venlafaxine-glucuronide concentration-time profile after the intravenous dose. […] The peak plasma concentration (Cmax) and the time to reach Cmax (tmax) were noted directly from the plasma concentration-time profiles. Absolute bioavailability was determined by comparing the dose normalized AUC0-μvalues following the intravenous administration. All levels reported as below limit of quantitation (BLQ) were assigned a value of zero for calculation purposes.

Where [4] appears, read: po, 75 mg, Oral Solution (75 mg).

Where two headings read alike, the source gives them in different places.

The term solubility denotes how much of the substance goes into solution per volume. The term AUC denotes the area under the concentration-time curve, a measure of exposure. Low readings indicate low exposure, high ones high exposure. The term Cmax denotes the peak of the concentration-time curve. The term Tmax denotes the time from dosing to the highest level. What is called bioavailability is dose-corrected exposure relative to a reference, in per cent. In the case of `CN(C)CC(c1ccc(O)cc1)C1(O)CCCCC1.O=C(O)CCC(=O)O` (centres unmarked) [ODV succinate, O-desmethyl-venlafaxine succinate], the solubility in series [1] is more than 30 mg/mL. Besides, the “relative percentage remaining of HPLC peak area” value amounted to 100.0% in series [2] (Blank Perfusion Buffer, 0 hours); 99.9% in series [2] (Blank Perfusion Buffer, 2 hours); 100.3% in series [2] (Blank Perfusion Buffer, 3 hours); 99.9% in series [2] (Blank Perfusion Buffer, 6 hours); 100.0% in series [2] (Intestinal fluid (pH 6.8, total protein approx. 0.2 mg/ml), 0 hours); 99.6% in series [2] (Intestinal fluid (pH 6.8, total protein approx. 0.2 mg/ml), 2 hours). Also, the “relative percentage remaining of HPLC peak area” value turned out to be 99.8% in series [2] (Intestinal fluid (pH 6.8, total protein approx. 0.2 mg/ml), 3 hours) and 100.1% in series [2] (Intestinal fluid (pH 6.8, total protein approx. 0.2 mg/ml), 6 hours). For the same molecule, the “stability in blank perfusion buffer and jejunal fluids” value in series [2] (pH 6.8, 37° C., up to 6 hours) is recorded as “no apparent degradation/metabolism”. The AUC is 746 ng·h/mL in series [3] (iv, 25 mg, Intravenous Solution (25 mg)); 904 ng·h/mL in series [3] (po, 75 mg, Capsule (75 mg)); 835 ng·h/mL in series [3] (setting [4]); 677 ng·h/mL in series [3] (po, 75 mg, Tablet (75 mg)). The Cmax in series [3] (po, 75 mg, Capsule (75 mg)) turned out to be 465 ng/mL; in series [3] (setting [4]), 450 ng/mL; in series [3] (po, 75 mg, Tablet (75 mg)), 115 ng/mL. The time to peak (Tmax) in series [3] (po, 75 mg, Capsule (75 mg)) came to 33 min; in series [3] (setting [4]) it was 30 min; in series [3] (po, 75 mg, Tablet (75 mg)) it was 175 min. In addition, the bioavailability in series [3] (po, 75 mg, Capsule (75 mg)) was 40%; in series [3] (setting [4]), 37%; in series [3] (po, 75 mg, Tablet (75 mg)) it was 31%.

Values taken from patent publication US7291347B2, “Succinate salt of O-desmethyl-venlafaxine” (Wyeth, priority 2001, dated 2007).
